{"source": "patent US20240299376A1", "about": "“METHOD OF TREATING A CONDITION USING A […] EFFECTIVE DOSE OF 1-(1-OXO-1,2-DIHYDROISOQUINOLIN-5-YL)-5-(TRIFLUOROMETHYL)-N-(2-(TRIFLUOROMETHYL)PYRIDIN-4-YL)-1H-PYRAZOLE-4-CARBOXAMIDE” (Janssen Pharmaceutica NV, priority 2021, published 2024)", "key": {"[1]": {"system": "HBL1 (CD79b/Myd88/A20 mut)", "assay": "Anti-proliferative activity, DLBCL cell line panel", "type": "cell-based", "conditions": "HBL1, 192 h; antiproliferation after 8 days of treatment", "protocol": "(§1) Four ABC-DLBCL cell lines with activating mutations in the canonical NFκB pathway were evaluated (OCI-LY3 (CARD11, MYD88 & A20 mutations), TMD8, HBL1, and OCI-LY10 (CD79B & MYD88 mutations)), which are generally sensitive to NF-κB pathway inhibition. None of the GCB-DLBCL cell lines harbor mutations in the NF-κB pathway. The GCB-DLBCL cell lines served as a negative control to exclude compounds with general cytotoxic effects.\n(§2) At concentrations ≥20 μM general cytotoxicity was observed."}, "[2]": {"system": "OCI-LY3 (Myd88/CARD11 A20 mut)", "assay": "Anti-proliferative activity, DLBCL cell line panel", "type": "cell-based", "conditions": "Homo sapiens", "protocol": "as §1, §2"}, "OCI-Ly1 (no NF-κB mut)": {"system": "OCI-Ly1 (no NF-κB mut)", "assay": "Anti-proliferative activity, DLBCL cell line panel", "type": "cell-based", "conditions": "Homo sapiens, OCI-Ly1, 192 h; antiproliferation after 8 days of treatment", "protocol": "as §1, §2"}, "OCT-Ly7 (no NF-κB mut)": {"system": "OCT-Ly7 (no NF-κB mut)", "assay": "Anti-proliferative activity, DLBCL cell line panel", "type": "cell-based", "conditions": "192 h; antiproliferation after 8 days of treatment", "protocol": "as §1, §2"}, "SU-DHL4 (no NF-κB mut)": {"system": "SU-DHL4 (no NF-κB mut)", "assay": "Anti-proliferative activity, DLBCL cell line panel", "type": "cell-based", "conditions": "Homo sapiens, SU-DHL-4, 192 h; antiproliferation after 8 days of treatment", "protocol": "as §1, §2"}, "[3]": {"system": "TMD8 (CD79b/Myd88/A20 mut)", "assay": "Anti-proliferative activity, DLBCL cell line panel", "type": "cell-based", "conditions": "Homo sapiens, TMD8, 192 h; antiproliferation after 8 days of treatment", "protocol": "as §1, §2"}, "[4]": {"system": "panel of 91 tumor cell lines", "assay": "Growth inhibition across various cancer indications", "type": "cell-based", "conditions": "more than 18 tumor indications, no ABC-DLBCL lines", "from_the_text": "The panel represents cancer cell lines from more than 18 different tumor indications, including breast, colon, lung, ovarian, and blood cancers."}, "[5]": {"assay": "Serum concentration after 28 days of oral dosing in male OCI-LY3 tumor-bearing NSG mice", "type": "in vivo", "conditions": "mouse, mean; for concentration at 1 h: 1 h post last dose; for concentration at 2 h: 2 h post last dose; for concentration at 4 h: 4 h post last dose; for concentration at 8 h: 8 h post last dose; for concentration at 12 h: 12 h post last dose; for concentration at 0.25 h: 0.25 h post last dose", "protocol": "For study 3, animals were randomly assigned into treatment groups, when the OCI-LY3 mean tumor volume was 164 mm^3 (Day 32 post-tumor cell implantation). Treatment was initiated on the day of randomization (Day 32). After 28 days of treatment on Day 60, serum was collected at 2, 4, and 12 hours post last dose for the bid treated groups or 2, 4 and 24 hours post last dose for qd treated groups in cohorts of 5 mice. Blood was collected from the retro-orbital sinus and submitted for bioanalytical analysis.\nSerum samples were collected at 1, 2, 4, 8, and 12 hours post dose (for twice-daily-treated animals) or 24 hours (for once-daily-treated animals)."}, "[6]": {"assay": "Oral bioavailability, 5 mg/kg solution in PEG400", "type": "in vivo, mice, rats, dogs, and monkeys", "conditions": "plasma, oral 5 mg/kg", "from_the_text": "(Data for mice, rats, and monkeys are not shown.)"}}}
{"smiles": "O=C(Nc1ccnc(C(F)(F)F)c1)c1cnn(-c2cccc3c(=O)[nH]ccc23)c1C(F)(F)F", "note": "[Compound A, 1-(1-oxo-1,2-dihydroisoquinolin-5-yl)-5-(trifluoromethyl)-N-[2-(trifluoromethyl)pyridin-4-yl]-1H-pyrazole-4-carboxamide]", "values": [{"measurement": "IC50", "setting": "[1]", "value": 547, "unit": "nM"}, {"measurement": "IC50", "setting": "[2]; OCI-Ly3, 192 h, antiproliferation after 8 days of treatment", "value": 496, "unit": "nM"}, {"measurement": "IC50", "setting": "[2]; Proliferation, OCI-LY3", "value": "496 ± 262", "unit": "nM"}, {"measurement": "IC50", "setting": "OCI-Ly1 (no NF-κB mut)", "value": "> 10000", "unit": "nM"}, {"measurement": "IC50", "setting": "OCT-Ly7 (no NF-κB mut)", "value": "> 10000", "unit": "nM"}, {"measurement": "IC50", "setting": "SU-DHL4 (no NF-κB mut)", "value": 6000, "unit": "nM"}, {"measurement": "IC50", "setting": "[3]", "value": 635, "unit": "nM"}, {"measurement": "sensitivity of tumor cell lines (cell viability)", "setting": "[4]", "value": "no single cell lines showing sensitivity to Compound A up to 20 μM"}, {"measurement": "concentration at 1 h", "setting": "[5]; 1 mg/kg BID PO 28 days", "value": 550, "unit": "ng/mL"}, {"measurement": "concentration at 2 h", "setting": "[5]; 1 mg/kg BID PO 28 days", "value": 449, "unit": "ng/mL"}, {"measurement": "concentration at 4 h", "setting": "[5]; 1 mg/kg BID PO 28 days", "value": 526, "unit": "ng/mL"}, {"measurement": "concentration at 8 h", "setting": "[5]; 1 mg/kg BID PO 28 days", "value": 721, "unit": "ng/mL"}, {"measurement": "concentration at 12 h", "setting": "[5]; 1 mg/kg BID PO 28 days", "value": 307, "unit": "ng/mL"}, {"measurement": "concentration at 0.25 h", "setting": "[5]; 3 mg/kg BID PO 28 days", "value": 1020, "unit": "ng/mL"}, {"measurement": "concentration at 1 h", "setting": "[5]; 3 mg/kg BID PO 28 days, N = 2", "value": 1940, "unit": "ng/mL"}, {"measurement": "concentration at 2 h", "setting": "[5]; 3 mg/kg BID PO 28 days", "value": 1560, "unit": "ng/mL"}, {"measurement": "concentration at 4 h", "setting": "[5]; 3 mg/kg BID PO 28 days", "value": 1150, "unit": "ng/mL"}, {"measurement": "concentration at 8 h", "setting": "[5]; 3 mg/kg BID PO 28 days, N = 2", "value": 2680, "unit": "ng/mL"}, {"measurement": "concentration at 12 h", "setting": "[5]; 3 mg/kg BID PO 28 days", "value": 1020, "unit": "ng/mL"}, {"measurement": "concentration at 0.25 h", "setting": "[5]; 10 mg/kg BID PO 28 days", "value": 4050, "unit": "ng/mL"}, {"measurement": "concentration at 1 h", "setting": "[5]; 10 mg/kg BID PO 28 days", "value": 5080, "unit": "ng/mL"}, {"measurement": "concentration at 2 h", "setting": "[5]; 10 mg/kg BID PO 28 days", "value": 4600, "unit": "ng/mL"}, {"measurement": "concentration at 4 h", "setting": "[5]; 10 mg/kg BID PO 28 days", "value": 6250, "unit": "ng/mL"}, {"measurement": "concentration at 8 h", "setting": "[5]; 10 mg/kg BID PO 28 days", "value": 5500, "unit": "ng/mL"}, {"measurement": "concentration at 12 h", "setting": "[5]; 10 mg/kg BID PO 28 days", "value": 4170, "unit": "ng/mL"}, {"measurement": "concentration at 0.25 h", "setting": "[5]; 30 mg/kg BID PO 28 days", "value": 5970, "unit": "ng/mL"}, {"measurement": "concentration at 1 h", "setting": "[5]; 30 mg/kg BID PO 28 days", "value": 11400, "unit": "ng/mL"}, {"measurement": "concentration at 2 h", "setting": "[5]; 30 mg/kg BID PO 28 days", "value": 12300, "unit": "ng/mL"}, {"measurement": "concentration at 4 h", "setting": "[5]; 30 mg/kg BID PO 28 days", "value": 10400, "unit": "ng/mL"}, {"measurement": "concentration at 8 h", "setting": "[5]; 30 mg/kg BID PO 28 days", "value": 14700, "unit": "ng/mL"}, {"measurement": "concentration at 12 h", "setting": "[5]; 30 mg/kg BID PO 28 days", "value": 9000, "unit": "ng/mL"}, {"measurement": "concentration at 1 h", "setting": "[5]; 60 mg/kg QD PO 28 days", "value": 9270, "unit": "ng/mL"}, {"measurement": "concentration at 2 h", "setting": "[5]; 60 mg/kg QD PO 28 days", "value": 16000, "unit": "ng/mL"}, {"measurement": "concentration at 4 h", "setting": "[5]; 60 mg/kg QD PO 28 days", "value": 11400, "unit": "ng/mL"}, {"measurement": "concentration at 24 h", "setting": "[5]; 60 mg/kg QD PO 28 days, 24 h post last dose", "value": 2510, "unit": "ng/mL"}, {"measurement": "concentration at 0.25 h", "setting": "[5]; 100 mg/kg BID PO 28 days", "value": 16500, "unit": "ng/mL"}, {"measurement": "concentration at 1 h", "setting": "[5]; 100 mg/kg BID PO 28 days", "value": 21200, "unit": "ng/mL"}, {"measurement": "concentration at 2 h", "setting": "[5]; 100 mg/kg BID PO 28 days", "value": 21600, "unit": "ng/mL"}, {"measurement": "concentration at 4 h", "setting": "[5]; 100 mg/kg BID PO 28 days", "value": 12800, "unit": "ng/mL"}, {"measurement": "concentration at 8 h", "setting": "[5]; 100 mg/kg BID PO 28 days", "value": 20500, "unit": "ng/mL"}, {"measurement": "concentration at 12 h", "setting": "[5]; 100 mg/kg BID PO 28 days", "value": 10300, "unit": "ng/mL"}, {"measurement": "bioavailability", "setting": "[6]; Sprague-Dawley, rat, rats", "value": 51.2, "unit": "%"}, {"measurement": "bioavailability", "setting": "[6]; beagle, dog, dogs", "value": 100, "unit": "%"}, {"measurement": "bioavailability", "setting": "[6]; mouse, rat, dog, monkey, all species (mice, rats, dogs, monkeys)", "value": "> 50", "unit": "%"}]}
